# From patent US10251942B2, “Immunity-inducing agent” (TORAY INDUSTRIES, INC., priority 2009, dated 2019)
# Where a SMILES comes first, the peptide text is derived from it.
# Tests used:
# [1] = tested on: malignant brain tumor cell line T98G; experiment: Chromium 51 release cytotoxicity of peptide-stimulated CD8-positive T cells; type: cell-based, human; conditions: 10^5 T cells and 10^3 T98G cells, 4 hours
# Method: In a 50-ml centrifuge tube, 10^5 cells of a malignant brain tumor cell line T98G, whose expression of PDS5A had been confirmed (Stein G H et al., J. Cell Physiol., 99: 43-54 (1979), purchased from ATCC), were collected, and 100 μCi of chromium 51 was added to the tube, followed by incubation at 37° C. for 2 hours. […] Thereafter, the amount of chromium 51 released from damaged tumor cells into the culture supernatant was measured, and thereby the cytotoxic activity of the CD8-positive T cells stimulated with each of the polypeptides shown in SEQ ID NOs:27 to 35 was calculated.
# The cytotoxic activity was determined by, as described above, mixing 10^5 CD8-positive T cells stimulated and induced with each of the peptides of the present invention and 10^3 cells of a malignant brain tumor cell line T98G to which chromium 51 was incorporated; culturing the resultant for 4 hours; measuring the amount of chromium 51 released into the culture medium after the culturing; and calculating the cytotoxic activity of the CD8-positive T cells against T98G according to the following equation*. cytotoxic activity (%)=(Amount of chromium 51 released from T98G when CD8-positive T cells were added)/(Amount of chromium 51 released from the target cells to which 1N hydrochloric acid was added)×100. *Equation: […]
# mammary gland tumor = experiment: Anti-tumor effect of recombinant PDS5A protein in tumor-bearing dog, mammary gland tumor; type: in vivo; conditions: 500 μg protein with same amount of Freund's incomplete adjuvant, regional lymph node near tumor, 3 times at 1-week intervals; tumor about 500 mm^3 (dog-derived) or 1000 mm^3 (human-derived) at administration
# Method: The anti-tumor effect of the recombinant protein described in Example 5 below in 3 individuals of tumor-bearing patient dogs (3 individuals having a mammary gland tumor) having a tumor mass in the epidermis was evaluated. Before administration, the antibody titer against the recombinant protein in the serum of each patient dog was measured by the method described in Example 5 (3), and, as a result, an antibody titer higher than that of a healthy dog was detected.
# With 500 μg (2.5 ml) each of the recombinant PDS5A proteins (dog-derived and human-derived) purified as described above, the same amount of Freund's incomplete adjuvant (manufactured by Wako Pure Chemical Industries, Ltd.) was mixed to prepare 2 kinds of therapeutic agents for cancer, each of which was administered to a regional lymph node in the vicinity of the tumor a total of 3 times at 1-week intervals. […] On the other hand, in the negative control group to which PBS(−) was administered, the tumor volume, which had been about 800 mm^3 at the time of administration of PBS, became 1625 mm^3 on Day 21 after the administration.
Molecule,cytotoxic activity of stimulated CD8-positive T cells against T98G [1],day on which complete regression of the tumor was achieved (mammary gland tumor)
CC(C)C[C@H](NC(=O)[C@H](CCCCN)NC(=O)[C@H](Cc1ccc(O)cc1)NC(=O)[C@H](C)NC(=O)[C@H](CO)NC(=O)[C@H](CS)NC(=O)[C@H](CS)NC(=O)[C@H](CCC(N)=O)NC(=O)[C@@H](N)CC(C)C)C(=O)O [SEQ ID NO:36] (H-LQCCSAYKL-OH),no cytotoxic activity,–
"human PDS5A protein (SEQ ID NO:44): full-length human PDS5A (SEQ ID NO:44) expressed in E. coli; given mixed with Freund's incomplete adjuvant (protein, listed as Homo sapiens, mixed with Freund's incomplete adjuvant) MDFTAQPKPATALCGVVSADGKIAYPPGVKEITDKITTDEMIKRLKMVVKTFMDMDQDSEDEKQQYLPLALHLASEFFLRNPNKDVRLLVACCLADIFRIYAPEAPYTSHDKLKDIFLFITRQLKGLEDTKSPQFNRYFYLLENLAWVKSYNICFELEDCNEIFIQLFRTLFSVINNSHNKKVQMHMLDLMSSIIMEGDGVTQELLDSILINLIPAHKNLNKQSFDLAKVLLKRTVQTIEACIANFFNQVLVLGRSSVSDLSEHVFDLIQELFAIDPHLLLSVMPQLEFKLKSNDGEERLAVVRLLAKLFGSKDSDLATQNRPLWQCFLGRFNDIHVPVRLESVKFASHCLMNHPDLAKDLTEYLKVRSHDPEEAIRHDVIVTIITAAKRDLALVNDQLLGFVRERTLDKRWRVRKEAMMGLAQLYKKYCLHGEAGKEAAEKVSWIKDKLLHIYYQNSIDDKLLVEKIFAQYLVPHNLETEERMKCLYYLYASLDPNAVKALNEMWKCQNMLRSHVRELLDLHKQPTSEANCSAMFGKLMTIAKNLPDPGKAQDFVKKFNQVLGDDEKLRSQLELLISPTCSCKQADICVREIARKLANPKQPTNPFLEMVKFLLERIAPVHIDSEAISALVKLMNKSIEGTADDEEEGVSPDTAIRSGLELLKVLSFTHPTSFHSAETYESLLQCLRMEDDKVAEAAIQIFRNTGHKIETDLPQIRSTLIPILHQKAKRGTPHQAKQAVHCIHAIFTNKEVQLAQIFEPLSRSLNADVPEQLITPLVSLGHISMLAPDQFASPMKSVVANFIVKDLLMNDRSTGEKNGKLWSPDEEVSPEVLAKVQAIKLLVRWLLGMKNNQSKSANSTLRLLSAMLVSEGDLTEQKRISKSDMSRLRLAAGSAIMKLAQEPCYHEIITPEQFQLCALVINDECYQVRQIFAQKLHKALVKLLLPLEYMAIFALCAKDPVKERRAHARQCLLKNISIRREYIKQNPMATEKLLSLLPEYVVPYMIHLLAHDPDFTRSQDVDQLRDIKECLWFMLEVLMTKNENNSHAFMKKMAENIKLTRDAQSPDESKTNEKLYTVCDVALCVINSKSALCNADSPKDPVLPMKFFTQPEKDFCNDKSYISEETRVLLLTGKPKPAGVLGAVNKPLSATGRKPYVRSTGTETGSNINVNSELNPSTGNRSREQSSEAAETGVSENEENPVRIISVTPVKNIDPVKNKEINSDQATQGNISSDRGKKRTVTAAGAENIQQKTDEKVDESGPPAPSKPRRGRRPKSESQGNATKNDDLNKPINKGRKRAAVGQESPGGLEAGNAKAPKLQDLAKKAAPAERQIDLQR",–,21 days
